Values of other authors, collected in US9351926B2 (Pharmaceutical Solutions Industry Ltd., priority 2012, dated 2016).

How the values were obtained:
[1] = system: platelet aggregation; conditions: single dose 400 mg within 8 hours before or within 30 minutes after immediate release aspirin (81 mg)
[2] = children, overdose
[3] = low dose (e.g. 1200 mg daily); epidemiological studies

Row | Structure (SMILES) | effect on the action of aspirin on thromboxane formation or platelet aggregation [1] | ingested dose that may cause symptoms [2] | risk of myocardial infarction [3] | Bioavailability (in vivo) | Excretion (in vivo) | concentration in breast milk (limited studies) | time of peak serum concentrations after ingestion (oral, empty stomach) | time of peak levels after administration (oral, taken with food) | interconversion into the active [+]S species (in adults)
1 | CC(C)Cc1ccc(C(C)C(=O)O)cc1 (racemic) [Ibuprofen, (RS)-2-(4-(2-methylpropyl)phenyl) propanoic acid] | decreased effect of aspirin on the formation of thromboxane or platelet aggregation | more than 400 mg/kg | do not suggest that low dose ibuprofen (e.g. 1200 mg daily) is associated with an increased risk of myocardial infarction | 49-73% | Renal | very low concentrations | 45 min | 1 to 2 h | –
2 | CC(C)Cc1ccc([C@@H](C)C(=O)O)cc1 [HR-form] | – | – | – | – | – | – | – | – | ~60%
